{"source": "paper PMC11912224", "about": "“A general approach for activity-based protein profiling of oxidoreductases with redox-differentiated diarylhalonium warheads” (Chemical Science, 2025)", "key": {"[1]": {"target": "T1, ALDH2 (aldehyde dehydrogenase 2, recombinant human) (Homo sapiens, UniProt P05091)", "T1 construct": "recombinant", "T1 sequence (P05091 18-517)": "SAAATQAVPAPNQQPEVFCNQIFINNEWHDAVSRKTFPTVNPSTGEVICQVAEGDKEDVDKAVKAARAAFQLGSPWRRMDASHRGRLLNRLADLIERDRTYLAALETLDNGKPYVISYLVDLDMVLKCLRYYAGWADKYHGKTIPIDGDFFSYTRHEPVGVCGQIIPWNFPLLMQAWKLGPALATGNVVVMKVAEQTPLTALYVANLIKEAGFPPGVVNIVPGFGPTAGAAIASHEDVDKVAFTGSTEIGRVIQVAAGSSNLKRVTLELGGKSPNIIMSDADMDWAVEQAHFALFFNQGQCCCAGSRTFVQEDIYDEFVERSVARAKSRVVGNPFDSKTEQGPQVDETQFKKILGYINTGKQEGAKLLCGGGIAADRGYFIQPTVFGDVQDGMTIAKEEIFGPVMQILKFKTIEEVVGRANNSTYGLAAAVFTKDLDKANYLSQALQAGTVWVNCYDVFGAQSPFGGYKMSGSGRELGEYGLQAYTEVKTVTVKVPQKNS", "assay": "activity-based labelling, in-gel fluorescence", "type": "binding", "settings": "covalent; 30 uM probe, 1 h"}, "[2]": {"target": "T2, CYP27A1 (sterol-26-hydroxylase) (Mus musculus, UniProt Q9DBG1)", "T2 construct": "native, in intact mouse liver pieces", "T2 sequence (Q9DBG1 33-533)": "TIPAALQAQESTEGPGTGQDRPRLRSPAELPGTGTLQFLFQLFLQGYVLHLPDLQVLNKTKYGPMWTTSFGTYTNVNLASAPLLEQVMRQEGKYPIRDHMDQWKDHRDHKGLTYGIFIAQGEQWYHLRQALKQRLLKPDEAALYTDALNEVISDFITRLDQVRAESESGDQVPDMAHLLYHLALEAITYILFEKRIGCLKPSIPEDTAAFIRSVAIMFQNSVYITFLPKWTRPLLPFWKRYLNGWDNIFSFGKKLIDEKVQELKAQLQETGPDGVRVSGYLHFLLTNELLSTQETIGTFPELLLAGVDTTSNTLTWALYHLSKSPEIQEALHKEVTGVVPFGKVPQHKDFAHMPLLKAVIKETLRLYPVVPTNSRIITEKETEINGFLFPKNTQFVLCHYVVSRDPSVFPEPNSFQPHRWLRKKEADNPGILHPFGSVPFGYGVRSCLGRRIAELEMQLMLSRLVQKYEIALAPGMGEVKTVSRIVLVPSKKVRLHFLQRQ", "assay": "covalent labelling, streptavidin enrichment, LC-MS/MS", "settings": "30 uM probe, 1 h, mouse liver pieces"}, "EUOX (eugenol oxidase)": {"target": "T3, EUOX (eugenol oxidase) (Rhodococcus jostii, UniProt Q0SBK1)", "T3 construct": "gene RHA1_ro03282; recombinant; FAD enzyme; details not in main text", "T3 sequence (Q0SBK1 1-526)": "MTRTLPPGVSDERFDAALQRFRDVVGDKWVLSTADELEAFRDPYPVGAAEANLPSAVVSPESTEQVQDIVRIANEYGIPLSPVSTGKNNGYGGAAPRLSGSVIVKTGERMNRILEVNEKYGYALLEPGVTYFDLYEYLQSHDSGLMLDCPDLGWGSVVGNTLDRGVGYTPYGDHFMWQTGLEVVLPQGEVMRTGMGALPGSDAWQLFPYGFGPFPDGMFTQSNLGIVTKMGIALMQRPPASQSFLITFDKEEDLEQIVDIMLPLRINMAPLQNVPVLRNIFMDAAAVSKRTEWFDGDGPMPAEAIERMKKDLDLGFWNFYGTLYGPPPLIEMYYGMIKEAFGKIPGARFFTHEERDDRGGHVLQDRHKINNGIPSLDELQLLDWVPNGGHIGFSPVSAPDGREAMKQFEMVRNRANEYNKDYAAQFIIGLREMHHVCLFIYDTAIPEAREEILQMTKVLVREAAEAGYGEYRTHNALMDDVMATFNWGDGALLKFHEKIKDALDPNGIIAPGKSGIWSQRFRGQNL", "assay": "activity-based labelling, in-gel fluorescence", "type": "binding", "settings": "covalent; 30 uM probe, 1 h"}, "[3]": {"target": "T4, retinol dehydrogenase RDH7 (Mus musculus, UniProt O88451)", "T4 construct": "native, in intact mouse liver pieces", "T4 sequence (O88451 1-316)": "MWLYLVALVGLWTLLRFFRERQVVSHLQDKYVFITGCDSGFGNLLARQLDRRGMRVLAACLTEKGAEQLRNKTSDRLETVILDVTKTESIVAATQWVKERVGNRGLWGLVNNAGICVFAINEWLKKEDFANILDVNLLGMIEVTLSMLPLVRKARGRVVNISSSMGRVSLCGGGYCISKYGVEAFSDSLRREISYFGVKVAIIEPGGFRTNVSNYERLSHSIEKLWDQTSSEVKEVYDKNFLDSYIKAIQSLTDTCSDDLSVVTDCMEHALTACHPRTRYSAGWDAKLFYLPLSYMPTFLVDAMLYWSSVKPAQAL", "assay": "covalent labelling, streptavidin enrichment, LC-MS/MS", "settings": "30 uM probe, 1 h, mouse liver pieces"}, "CYP3A25": {"target": "T5, CYP3A25 (Mus musculus, UniProt O09158)", "T5 construct": "native, in intact mouse liver pieces", "T5 sequence (O09158 1-503)": "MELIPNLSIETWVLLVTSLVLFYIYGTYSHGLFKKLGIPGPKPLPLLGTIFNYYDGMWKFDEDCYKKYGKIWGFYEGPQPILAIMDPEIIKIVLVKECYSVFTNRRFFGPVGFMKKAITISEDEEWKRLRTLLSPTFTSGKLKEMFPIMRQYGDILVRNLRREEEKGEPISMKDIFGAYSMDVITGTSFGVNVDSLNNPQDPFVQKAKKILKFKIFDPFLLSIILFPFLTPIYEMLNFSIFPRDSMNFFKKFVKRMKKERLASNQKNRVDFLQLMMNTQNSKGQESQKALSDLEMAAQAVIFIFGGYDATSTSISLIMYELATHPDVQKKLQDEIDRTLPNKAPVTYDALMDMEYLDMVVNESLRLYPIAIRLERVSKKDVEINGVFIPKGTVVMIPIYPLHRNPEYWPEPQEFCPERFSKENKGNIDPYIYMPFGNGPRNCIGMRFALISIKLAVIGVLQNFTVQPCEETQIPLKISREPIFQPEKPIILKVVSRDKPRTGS", "assay": "covalent labelling, streptavidin enrichment, LC-MS/MS", "settings": "30 uM probe, 1 h, mouse liver pieces"}, "[4]": {"target": "T6, retinol dehydrogenase RDH16 (Mus musculus, UniProt O54909)", "T6 construct": "native, in intact mouse liver pieces", "T6 sequence (O54909 1-317)": "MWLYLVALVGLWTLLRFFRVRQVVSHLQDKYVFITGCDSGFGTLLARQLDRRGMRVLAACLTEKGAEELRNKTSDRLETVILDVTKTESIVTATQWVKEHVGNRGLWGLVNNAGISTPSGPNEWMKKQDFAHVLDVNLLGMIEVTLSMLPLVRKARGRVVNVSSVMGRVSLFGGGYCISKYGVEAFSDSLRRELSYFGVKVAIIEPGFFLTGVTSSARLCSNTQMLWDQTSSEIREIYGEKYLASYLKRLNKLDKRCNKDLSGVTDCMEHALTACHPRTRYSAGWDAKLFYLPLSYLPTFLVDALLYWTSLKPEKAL", "assay": "covalent labelling, streptavidin enrichment, LC-MS/MS", "settings": "30 uM probe, 1 h, mouse liver pieces"}}}
{"smiles": "[N-]=[N+]=NCCCCCCCCCCNC(=O)c1ccc([I+]c2ccccc2)cc1", "note": "[3aa, diphenyliodonium probe 3aa]", "values": [{"measurement": "activity-based labelling, in-gel fluorescence", "setting": "[1]", "value": "led to the labeling of several of the tested oxidoreductases"}, {"measurement": "covalent labelling, streptavidin enrichment, LC-MS/MS", "setting": "[2]", "value": "cytochrome P450 monooxygenases (CYP3A25, CYP27A1)"}, {"measurement": "activity-based labelling, in-gel fluorescence", "setting": "EUOX (eugenol oxidase)", "value": "led to the labeling of several of the tested oxidoreductases"}, {"measurement": "covalent labelling, streptavidin enrichment, LC-MS/MS", "setting": "[3]", "value": "RDH7 and RDH16 were found to be labeled by probe 3aa very well"}, {"measurement": "covalent labelling, streptavidin enrichment, LC-MS/MS", "setting": "CYP3A25", "value": "cytochrome P450 monooxygenases (CYP3A25, CYP27A1)"}, {"measurement": "covalent labelling, streptavidin enrichment, LC-MS/MS", "setting": "[4]", "value": "RDH7 and RDH16 were found to be labeled by probe 3aa very well"}]}
